Like-named read-outs stand apart in the source and are kept apart here.
Columns and labels:
[1] = test system: A2780 cells; test: In-vitro cell proliferation assay (SRB), A2780 cells; assay type: cell-based; details: Homo sapiens, A2780, 72 h, A2780 cells, 72 hours, read-out: A2780 IC50
Outline: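 SRB read-out: 6% TCA fix 1 h at 4° C., stain, Tris solubilize, A570. Media-only background subtracted; % inhibition from two compound concentrations.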

[2] = biological target: T1, NAMPT (Homo sapiens, UniProt P43490); test: Biochemical inhibition assay: NAMPT enzymatic reaction, NMN quantified by mass spectrometry; details: read-out: Biochem IC50
T1 construct: His tag; host or cells: E. coli
Outline: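 Inhibition of E. coli-expressed His-tagged human NAMPT, measured as NMN formation by mass spectrometry after a 30 min room-temperature reaction containing 1 μM NAM, 100 μM PRPP and 2.5 mM ATP.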

T1 sequence (P43490 whole entry): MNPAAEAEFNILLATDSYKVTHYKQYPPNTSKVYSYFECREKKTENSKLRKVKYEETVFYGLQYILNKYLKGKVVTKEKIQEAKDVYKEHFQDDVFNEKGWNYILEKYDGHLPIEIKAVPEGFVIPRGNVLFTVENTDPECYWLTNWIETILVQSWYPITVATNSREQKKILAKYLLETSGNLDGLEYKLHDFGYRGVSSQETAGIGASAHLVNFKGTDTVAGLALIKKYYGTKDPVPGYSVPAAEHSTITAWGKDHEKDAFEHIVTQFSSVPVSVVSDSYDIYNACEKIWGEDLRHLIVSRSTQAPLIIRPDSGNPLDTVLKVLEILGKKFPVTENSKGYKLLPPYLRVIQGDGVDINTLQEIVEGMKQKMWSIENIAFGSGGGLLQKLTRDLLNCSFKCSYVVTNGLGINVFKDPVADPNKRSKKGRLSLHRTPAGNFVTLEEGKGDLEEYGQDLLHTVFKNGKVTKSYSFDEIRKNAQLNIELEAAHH

| Compound | IC50 ([1]; SRB) [nM] | IC50 ([2]; NAMPT enzymatic reaction) [nM] | IC50 ([2]; NAMPT enzymatic assay) [nM] | IC50 ([1]; SRB assay) [nM] |
| --- | --- | --- | --- | --- |
| COc1cc(F)ccc1S(=O)(=O)c1ccc(CNC(=O)c2cnc3[nH]ncc3c2)cc1 [N-({4-[(4-fluoro-2-methoxybenzene)sulfonyl]phenyl}methyl)-1H-pyrazolo[3,4-b]pyridine-5-carboxamide] | 74.2 | 159 | – | – |
| O=C(NCc1ccc(S(=O)(=O)c2ccc(OCC(F)(F)F)c(F)c2)cc1)c1cnc2[nH]ncc2c1 [N-[(4-{[3-fluoro-4-(2,2,2-trifluoroethoxy)benzene]sulfonyl}phenyl)methyl]-1H-pyrazolo[3,4-b]pyridine-5-carboxamide] | 22.3 | – | 10.3 | – |
| O=C(NCc1ccc(S(=O)(=O)c2cccc(C(F)(F)F)c2)cc1)c1ccc2nccn2c1 [N-[(4-{[3-(trifluoromethyl)benzene]sulfonyl}phenyl)methyl]imidazo[1,2-a]pyridine-6-carboxamide] | 1.72 | – | 8.42 | – |
| COc1ccc2cc(S(=O)(=O)c3ccc(CNC(=O)c4ccc5nccn5c4)cc3)ccc2c1 [N-{[4-(6-methoxynaphthalene-2-sulfonyl)phenyl]methyl}imidazo[1,2-a]pyridine-6-carboxamide] | 1.8 | – | 2.7 | – |
| CS(=O)(=O)c1cccc(S(=O)(=O)c2ccc(CNC(=O)c3cc4ccncc4s3)cc2)c1 | 3.5 | 1.7 | – | – |
| COc1ccc(OC)c(S(=O)(=O)c2ccc(CNC(=O)c3cnc4[nH]ncc4c3)cc2)c1 [N-({4-[(2,5-dimethoxybenzene)sulfonyl]phenyl}methyl)-1H-pyrazolo[3,4-b]pyridine-5-carboxamide] | 24.8 | 39.8 | – | – |
| O=C(NCc1ccc(S(=O)(=O)c2ccc(Cl)c(F)c2)cc1)c1cnc2nccn2c1 | 8.9 | 1.9 | – | – |
| O=C(NCc1ccc(S(=O)(=O)c2ccc(C(F)(F)F)cc2C(F)(F)F)cc1)c1cc2ccncc2o1 | 63.7 | – | 53 | – |
| COc1cncc(S(=O)(=O)c2ccc(CNC(=O)c3cnc4nccn4c3)cc2)c1 [N-{[4-(5-methoxypyridine-3-sulfonyl)phenyl]methyl}imidazo[1,2-a]pyrimidine-6-carboxamide] | 25.8 | – | 1.6 | – |
| O=C(NCc1ccc(S(=O)(=O)c2c(F)cccc2Cl)cc1)c1cc2cnccc2[nH]1 | 37.1 | 114 | – | – |
| COc1cc(S(=O)(=O)c2ccc(CNC(=O)c3cnc4nccn4c3)cc2)ccc1F | 10.8 | 4.9 | – | – |
| CCCCOc1ccc(S(=O)(=O)c2ccc(CNC(=O)c3cc4ccncc4s3)cc2)cc1F [N-({4-[(4-butoxy-3-fluorobenzene)sulfonyl]phenyl}methyl)thieno[2,3-c]pyridine-2-carboxamide] | 12.6 | 4.7 | – | – |
| O=C(NCc1ccc(S(=O)(=O)c2ccc(N3CCOCC3)cc2)cc1)c1cnc2nccn2c1 | 4 | – | 1.7 | – |
| O=C(NCc1ccc(S(=O)(=O)c2cccc(-c3ccc(F)c(F)c3)n2)cc1)c1ccc2nccn2c1 [N-({4-[6-(3,4-difluorophenyl)pyridine-2-sulfonyl]phenyl}methyl)imidazo[1,2-a]pyridine-6-carboxamide] | 5.7 | – | 4.3 | – |
| O=C(NCc1ccc(S(=O)(=O)c2cccc3c2Oc2ccccc2S3)cc1)c1cc2ccncc2o1 [N-{[4-(phenoxathiine-4-sulfonyl)phenyl]methyl}furo[2,3-c]pyridine-2-carboxamide] | 13.1 | – | 5.6 | – |
| CS(=O)(=O)c1cccc(S(=O)(=O)c2ccc(CNC(=O)c3ccc4nccn4c3)cc2)c1 | 16 | 25.6 | – | – |
| Cc1ccc(S(=O)(=O)c2ccc(CNC(=O)c3cnc4[nH]ncc4c3)cc2)cc1F | 5.6 | 11.7 | – | – |
| CN1CCN(c2ccc(S(=O)(=O)c3ccc(CNC(=O)c4cnc5[nH]ncc5c4)cc3)cc2)CC1 | 1.3 | – | 4 | – |
| O=C(NCc1ccc(S(=O)(=O)c2cncc(Cl)c2)cc1)c1cc2cnccc2[nH]1 [N-{[4-(5-chloropyridine-3-sulfonyl)phenyl]methyl}-1H-pyrrolo[3,2-c]pyridine-2-carboxamide] | 3.6 | – | 20 | – |
| Cc1cc(Cl)cnc1S(=O)(=O)c1ccc(CNC(=O)c2cnc3nccn3c2)cc1 [N-{[4-(5-chloro-3-methylpyridine-2-sulfonyl)phenyl]methyl}imidazo[1,2-a]pyrimidine-6-carboxamide] | 22 | – | 2.2 | – |
| N#CC1(c2ccc(S(=O)(=O)c3ccc(CNC(=O)c4ccc5nccn5c4)cc3)cc2)CCCC1 | 3 | – | 10.7 | – |
| Cn1ncc2c(S(=O)(=O)c3ccc(CNC(=O)c4cc5cnccc5[nH]4)cc3)cccc21 [N-{[4-(1-methyl-1H-indazole-4-sulfonyl)phenyl]methyl}-1H-pyrrolo[3,2-c]pyridine-2-carboxamide] | 1.5 | – | 3.1 | – |
| COc1ccc(S(=O)(=O)c2ccc(CNC(=O)c3cc4ccncc4o3)cc2)cc1OC | 3.8 | 6.2 | – | – |

| Compound | IC50 ([1]; SRB) [nM] | IC50 ([2]; NAMPT enzymatic reaction) [nM] | IC50 ([2]; NAMPT enzymatic assay) [nM] | IC50 ([1]; SRB assay) [nM] |
| --- | --- | --- | --- | --- |
| O=C(NCc1ccc(S(=O)(=O)N2CC3CCC(C2)O3)cc1)c1ccc2nccn2c1 [N-[(4-{8-oxa-3-azabicyclo[3.2.1]octane-3-sulfonyl}phenyl)methyl]imidazo[1,2-a]pyridine-6-carboxamide] | – | 4 | – | 3 |
| CCC[C@@H](O)c1ccc(S(=O)(=O)c2ccc(CNC(=O)c3cnc4nccn4c3)cc2)cc1 | 14.2 | – | 4.8 | – |
| O=C(NCc1ccc(S(=O)(=O)c2cc(F)cc(OCC(F)(F)F)c2)cc1)c1cc2ccncc2o1 [N-[(4-{[3-fluoro-5-(2,2,2-trifluoroethoxy)benzene]sulfonyl}phenyl)methyl]furo[2,3-c]pyridine-2-carboxamide] | 6.1 | – | 7.4 | – |
| Cc1cc(C)n(-c2cccc(S(=O)(=O)c3ccc(CNC(=O)c4ccc5nccn5c4)cc3)c2)n1 | 0.8 | – | 7.2 | – |
| O=C(NCc1ccc(S(=O)(=O)c2ccc(Cl)c(C(F)(F)F)c2)cc1)c1cc2cnccc2[nH]1 [N-[(4-{[4-chloro-3-(trifluoromethyl)benzene]sulfonyl}phenyl)methyl]-1H-pyrrolo[3,2-c]pyridine-2-carboxamide] | – | 8 | – | 5 |
| Cn1c(C(=O)NCc2ccc(S(=O)(=O)c3ccccc3)cc2)cc2cnccc21 [N-{[4-(benzenesulfonyl)phenyl]methyl}-1-methyl-1H-pyrrolo[3,2-c]pyridine-2-carboxamide] | – | > 10000 | – | > 30000 |
| Cn1ncc2cccc(S(=O)(=O)c3ccc(CNC(=O)c4cc5cnccc5[nH]4)cc3)c21 [N-{[4-(1-methyl-1H-indazole-7-sulfonyl)phenyl]methyl}-1H-pyrrolo[3,2-c]pyridine-2-carboxamide] | 11.1 | – | 37.1 | – |
| O=C(NCc1ccc(S(=O)(=O)c2ccc(-c3ccccc3)cc2)cc1)c1cnc2[nH]ncc2c1 | 11.7 | 32 | – | – |
| Cc1ccc(S(=O)(=O)c2ccc(CNC(=O)c3cc4cnccc4[nH]3)cc2)cc1Cl | 2.5 | 8.3 | – | – |
| CC(=O)c1cccc(S(=O)(=O)c2ccc(CNC(=O)c3cnc4[nH]ncc4c3)cc2)c1 | 12.9 | 10 | – | – |
| O=C(NCc1ccc(S(=O)(=O)c2ccccc2CN2CCOCC2)cc1)c1cc2ccncc2s1 [N-[(4-{[2-(morpholin-4-ylmethyl)benzene]sulfonyl}phenyl)methyl]thieno[2,3-c]pyridine-2-carboxamide] | – | 13 | – | 3.6 |
| Cc1cc(S(=O)(=O)c2ccc(CNC(=O)c3cc4cnccc4[nH]3)cc2)ccc1F [N-({4-[(4-fluoro-3-methylbenzene)sulfonyl]phenyl}methyl)-1H-pyrrolo[3,2-c]pyridine-2-carboxamide] | – | 9 | – | 7 |
| CN(C)c1ncc(S(=O)(=O)c2ccc(CNC(=O)c3cc4ccncc4s3)cc2)cn1 [N-({4-[2-(dimethylamino)pyrimidine-5-sulfonyl]phenyl}methyl)thieno[2,3-c]pyridine-2-carboxamide] | 1.7 | – | 8 | – |
| O=C(NCc1ccc(S(=O)(=O)c2ccc(Cl)cc2C(F)(F)F)cc1)c1cnc2[nH]ncc2c1 [N-[(4-{[4-chloro-2-(trifluoromethyl)benzene]sulfonyl}phenyl)methyl]-1H-pyrazolo[3,4-b]pyridine-5-carboxamide] | 78.3 | – | 147 | – |
| COc1ccc(C(C)(C)C)cc1S(=O)(=O)c1ccc(CNC(=O)c2cnc3nccn3c2)cc1 | 7.7 | – | 9.8 | – |
| O=C(NCc1ccc(S(=O)(=O)Nc2cccc3c2CCCC3)cc1)c1cc2cnccc2[nH]1 [N-({4-[(5,6,7,8-tetrahydronaphthalen-1-yl)sulfamoyl]phenyl}methyl)-1H-pyrrolo[3,2-c]pyridine-2-carboxamide] | – | > 30000 | – | > 30000 |
| O=C(NCc1ccc(S(=O)(=O)c2cccc(F)c2)cc1)c1ccc2nccn2c1 [N-({4-[(3-fluorobenzene)sulfonyl]phenyl}methyl)imidazo[1,2-a]pyridine-6-carboxamide] | 12.2 | 22.1 | – | – |
| O=C(NCc1ccc(S(=O)(=O)c2cc(F)cc(OCC(F)(F)F)c2)cc1)c1cnc2nccn2c1 | 1.5 | – | 1.9 | – |
| CC(C)Oc1cc(F)ccc1S(=O)(=O)c1ccc(CNC(=O)c2cc3ccncc3o2)cc1 | 13.9 | – | 15.6 | – |
| O=C(NCc1ccc(S(=O)(=O)c2ccccc2Oc2ccccc2)cc1)c1ccc2nccn2c1 [N-({4-[(2-phenoxybenzene)sulfonyl]phenyl}methyl)imidazo[1,2-a]pyridine-6-carboxamide] | 60.7 | 63.6 | – | – |
| CCOc1ccc(S(=O)(=O)c2ccc(CNC(=O)c3cc4ccncc4s3)cc2)cc1F | 3.6 | 8.9 | – | – |
| O=C(NCc1ccc(S(=O)(=O)c2ccc(-n3cccn3)cc2)cc1)c1cc2ccncc2o1 | 7.3 | – | 4.1 | – |
